Values joined by “and” are separate entries in the source; they are usually repeats but may differ in a detail not shown here. Equal values may be shown once.
Assays:
Format in all cases: functional, Homo sapiens
TERT-RPE1 = experiment: (§1) Here: values are normalized to the negative (DMSO; defined as 0% autophagy induction) and positive (250nM Torin1; mTOR inhibitor; defined as maximal inducer of autophagy = 100%) control compounds and represented as % of autophagy induction. […] The impact of autophagy induction on cells is complex and depends on the affected target. As such, the magnitude of a phenotype may not be equally mirrored in the %-value of autophagy induction and vice versa. The dynamics of the induction may indicate the mode of activation: e.g. activation via phosphorylation or a signaling cascade may occur fast, while activation via transcription factors may take considerably longer. […] Of note, treatment concentrations may be sub-optimal for specific compounds, leading to false negative annotations.; details: Culturing Media DMEM/F12 (1:1), 1 % Penicillin/Streptomycin, 10% Fetal bovin serum Add-On: No, Screening Media Control DMEM/F12 (1:1), Screening Media Samples DMEM/F12 (1:1)
U2OS [1] = experiment: as §1; details: Culturing Media DMEM, 1 % Penicillin/Streptomycin, 10% Fetal bovin serum Add-On: No, Screening Media Control DMEM, Screening Media Samples DMEM
U2OS [2] = experiment: as §1; details: Culturing Media DMEM, 1 % Penicillin/Streptomycin, 10% Fetal bovin serum Add-On: No, Screening Media Control DMEM, Screening Media Samples DMEM; remark: listed apart in the source
[3] = Compound Concentration 0.5 uM, Timepoint 12 hours
[4] = Compound Concentration 0.5 uM, Timepoint 24 hours
[5] = Compound Concentration 0.5 uM, Timepoint 36 hours
[6] = Compound Concentration 0.5 uM, Timepoint 60 hours
[7] = Compound Concentration 2 uM, Timepoint 12 hours
[8] = Compound Concentration 2 uM, Timepoint 24 hours
[9] = Compound Concentration 2 uM, Timepoint 36 hours
[10] = Compound Concentration 2 uM, Timepoint 60 hours
[11] = Compound Concentration 10 uM, Timepoint 12 hours
[12] = Compound Concentration 10 uM, Timepoint 24 hours
[13] = Compound Concentration 10 uM, Timepoint 36 hours
[14] = Compound Concentration 10 uM, Timepoint 60 hours

COc1ccc(CNC(=O)c2cc(-c3cncc(Cl)c3)cnc2-c2ccccn2)nc1OC [MK-1064]
autophagy induction (TERT-RPE1; Compound Concentration 0.5 uM, Timepoint 12 hours, 12 h, 0.5 µM): -1.649% and -1.281%
autophagy induction (TERT-RPE1; Compound Concentration 0.5 uM, Timepoint 24 hours, 24 h, 0.5 µM): -0.5797% and -3.213%
autophagy induction (TERT-RPE1; Compound Concentration 0.5 uM, Timepoint 36 hours, 36 h, 0.5 µM): -3.034% and -3.261%
autophagy induction (TERT-RPE1; Compound Concentration 0.5 uM, Timepoint 60 hours, 60 h, 0.5 µM): -3.035% and -4.321%
autophagy induction (TERT-RPE1; Compound Concentration 2 uM, Timepoint 12 hours, 12 h, 2 µM): 3.536% and 7.073%
autophagy induction (TERT-RPE1; Compound Concentration 2 uM, Timepoint 24 hours, 24 h, 2 µM): -0.496% and 6.728%
autophagy induction (TERT-RPE1; Compound Concentration 2 uM, Timepoint 36 hours, 36 h, 2 µM): -2.12% and 5.645%
autophagy induction (TERT-RPE1; Compound Concentration 2 uM, Timepoint 60 hours, 60 h, 2 µM): -0.3513% and 7.579%
autophagy induction (TERT-RPE1; Compound Concentration 10 uM, Timepoint 12 hours, 12 h, 10 µM): 0.9286% and 0.4822%
autophagy induction (TERT-RPE1; Compound Concentration 10 uM, Timepoint 24 hours, 24 h, 10 µM): 1.419% and 1.256%
autophagy induction (TERT-RPE1; Compound Concentration 10 uM, Timepoint 36 hours, 36 h, 10 µM): 0.4472% and 1.634%
autophagy induction (TERT-RPE1; Compound Concentration 10 uM, Timepoint 60 hours, 60 h, 10 µM): 0.346% and 3.096%
autophagy induction (U2OS [1]; [3]): 6.6807%
autophagy induction (U2OS [1]; [4]): 0.4544%
autophagy induction (U2OS [1]; [5]): -59.909%
autophagy induction (U2OS [1]; [6]): -3.175%
autophagy induction (U2OS [1]; [7]): 5.723%
autophagy induction (U2OS [1]; [8]): -2.067%
autophagy induction (U2OS [1]; [9]): 2463.06%
autophagy induction (U2OS [1]; [10]): -2.86%
autophagy induction (U2OS [1]; [11]): 2.927%
autophagy induction (U2OS [1]; [12]): -3.704%
autophagy induction (U2OS [1]; [13]): 1020.2%
autophagy induction (U2OS [1]; [14]): -2.212%
autophagy induction (U2OS [2]; [3]): 12.3622%
autophagy induction (U2OS [2]; [4]): 4.385%
autophagy induction (U2OS [2]; [5]): 3.479%
autophagy induction (U2OS [2]; [6]): -7.04%
autophagy induction (U2OS [2]; [7]): 9.573%
autophagy induction (U2OS [2]; [8]): 2.106%
autophagy induction (U2OS [2]; [9]): 1.004%
autophagy induction (U2OS [2]; [10]): 0.7274%
autophagy induction (U2OS [2]; [11]): 0.3207%
autophagy induction (U2OS [2]; [12]): -2.025%
autophagy induction (U2OS [2]; [13]): -1.481%
autophagy induction (U2OS [2]; [14]): 2.712%

From ChEMBL document CHEMBL5724696, “Autophagy assay results for EUbOPEN Chemogenomics Library” (2024)
